Experimental data as given in US8778954B2, “Phenylpyridine derivative and medicinal agent comprising same” (Kowa Company, Ltd., priority 2009, dated 2014).

Assays:
[1] = tested on: Zucker diabetic fatty (ZDF) rats; experiment: Activity for diabetic nephropathy in Zucker diabetic fatty rats; type: in vivo, rat; conditions: 3 mg/kg once a day for 15 weeks; for elimination amount of urinary total protein per 18 hours: FIG. 4; for plasma triglyceride concentration: FIG. 5; for plasma total cholesterol concentration: FIG. 6; for renal protecting activity (diabetic nephropathy): overall conclusion
Method: By using 8-week old Zucker diabetic fatty (ZDF) rats, the body weight, the elimination amount of urinary total protein (UTP), the plasma triglyceride concentration (TG), and the plasma total cholesterol concentration (TC) of each rat were measured before administration of the medicine, and group separation was performed by blocking assignment so that there was no variation of these values between respective groups. Solvent control (0.5% MC), 3 mg/kg telmisartan, 3 mg/kg of the compound of Example 21, and 3 mg/kg of the compound of Example 23 were administered iteratively for 15 weeks once a day. UTP, TG, and TC were measured according to a general method during the administration period at 4, 8, 12, and 15 weeks after the administration.
Vehicle, Telmisartan, Compound 23, and Compound 21 in FIGS. 4, 5, and 6 represent solvent control, telmisartan, the compound of Example 23, and the compound of Example 21, respectively. The horizontal axis of FIG. 4-1 represents time (weeks after administration), and the vertical axis represents the elimination amount of urinary total protein per 18 hours. The data in FIG. 4-1 represents average values of each individual in each point, wherein -●- represents Vehicle (solvent control), -♦- represents Telmisartan, -▪- represents Compound 23 (the compound of Example 23), and -▴- represents Compound 21 (the compound of Example 21). The vertical axis of FIG. 4-2 represents the elimination amount of urinary total protein per 18 hours. The data in FIG. 4-2 represents individual values and average values of each individual +standard deviation.
The vertical axis of FIG. 5 represents the plasma triglyceride concentration. The data in FIG. 5 represents individual values and average values of each individual.
The vertical axis of FIG. 6 represents the plasma total cholesterol concentration. The data in FIG. 6 represents individual values and average values of each individual.
Furthermore, it was believed that one reason for the potent activity may be related to improving activity of lipid metabolism, and it is believed that the potent activity is attributed to activities other than the angiotensin receptor antagonistic activity.

[2] = tested on: spontaneously hypertensive rats (SHR); experiment: Hypotensive activity with tail cuff method in spontaneously hypertensive rats; type: in vivo, rat; conditions: 3 and 10 mg/kg orally once a day for 7 days, 4, 24 and 72 hours after final administration, FIG. 1
Method: By using 19-week old spontaneously hypertensive rats (SHR), the body weight and the systolic blood pressure (SBP) of each rat were measured before administration of the medicine, and group separation was performed by blocking assignment so that there was no variation of these values between respective groups. Solvent control (0.5% methyl cellulose solution, MC), 3 mg/kg telmisartan, 3 and 10 mg/kg of the compound of Example 21, and 3 and 10 mg/kg of the compound of Example 23 were orally administered iteratively for 7 days, once a day. The blood pressure and the heart beat rate were measured with tail cuff method at 4, 24, and 72 hours after the administration of the final administration day. Specifically, the rat was put into a cylindrical positioner, maintained at 37° C., and the blood pressure and the heart beat rate were measured from the tail of the rat during the resting state using a non-invasive blood pressure meter (trade name: BP-98A, manufactured by Softron Co., Ltd., Tokyo, Japan). The blood pressure and the heart beat rate were measured for each individual three times or more in a row. When the difference of the systolic blood pressures between the consecutive measurement values was 5 mmHg or less, the average values of these measurement values were taken as data, except for the first measurement. […]

[3] = biological target: T1, angiotensin II type 1 receptor (Oryctolagus cuniculus, UniProt P34976); experiment: Angiotensin II receptor antagonistic activity in isolated rabbit blood vessels (thoracic aorta ring, angiotensin II-induced contraction); type: cell-based; conditions: 0.1 μM test compound, angiotensin II (10 nM)-induced contraction, read-out: Angiotensin II activity inhibitiom rate (%) at 0.1 μM concentration
T1 construct: By using a specimen of isolated rabbit blood vessels; from tissue; host or cells: rabbit (New Zealand White) thoracic aorta ring
T1 sequence (P34976 1-359): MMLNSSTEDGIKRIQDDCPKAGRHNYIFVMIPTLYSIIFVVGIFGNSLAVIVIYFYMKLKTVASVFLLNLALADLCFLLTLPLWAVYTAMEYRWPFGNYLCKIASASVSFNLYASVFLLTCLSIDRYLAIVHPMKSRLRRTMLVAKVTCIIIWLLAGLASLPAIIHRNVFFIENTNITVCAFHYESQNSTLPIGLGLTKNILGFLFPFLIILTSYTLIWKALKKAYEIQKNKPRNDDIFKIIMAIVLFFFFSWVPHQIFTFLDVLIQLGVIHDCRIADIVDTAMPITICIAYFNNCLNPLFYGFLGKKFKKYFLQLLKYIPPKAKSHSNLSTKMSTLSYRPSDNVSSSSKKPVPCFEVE
Method: By using a specimen of isolated rabbit blood vessels, antagonistic activity of the compounds of the invention against angiotensin II type 1 receptor was estimated from a dose-response curve of angiotensin II-induced blood vessel contraction. Specifically, the specimen of thoracic aorta ring of a rabbit (New Zealand White: male, 2.4 to 3.0 kg) was suspended in a magnus bath filled with Krebs-Henseleite buffer (composition: 118 mM NaCl, 4.7 mM KCl, 2.55 mM CaCl2, 1.18 mM MgSO4, 1.18 mM KH2PO4, 24.88 mM NaHCO3, and 11.1 mM D-glucose), and angiotensin II (10 nM)-induced contraction was obtained in the presence of the compounds of each test (1 nmol/L to 10 μmol/L). During the measurement, the inside temperature of the magnus bath was maintained at 37° C. and the bath was continuously ventilated with a sufficient amount of mixed gas (95% O2 and 5% CO2). The angiotensin II-induced contraction was converted into a relative value (%) that is based on the angiotensin II (0.1 μM)-induced contraction in the absence of the compounds of each example.

Q: Which “elimination amount of urinary total protein per 18 hours” value [1] does the source give for `CCCCc1nc(C(C)C)n(-c2ncc(OCC)cn2)c(=O)c1Cc1ccc(-c2ccccc2-c2noc(=O)[nH]2)nc1` [Example 21, 3-{2-{5-{[4-butyl-1-(5-ethoxypyrimidin-2-yl)-2-isopropyl-6-oxo-1,6-dihydropyrimidin-5-yl]methyl}pyridin-2-yl}phenyl}-1,2,4-oxadiazol-5(4H)-one] here?
A: remarkably inhibited increase of the elimination amount of urinary total protein, and their activity was more potent than that of telmisartan

Q: And the plasma triglyceride concentration [1]?
A: remarkably lowered the plasma triglyceride concentration

Q: And the “plasma total cholesterol concentration” value [1]?
A: remarkably lowered the plasma total cholesterol concentration, and such activity was more potent than that of telmisartan

Q: And the “renal protecting activity (diabetic nephropathy)” value [1]?
A: potent renal protecting activity

Q: What about the “blood pressure lowering activity (change in systolic blood pressure from pre-administration)” value [2] of the same compound?
A: potent blood pressure lowering activity dose-dependently that was equivalent or more to telmisartan

Q: And the inhibition at 0.1 µM [3]?
A: 70.3%

Q: `CCCCc1nc(C2CC2)n(-c2ncc(OCC)cn2)c(=O)c1Cc1ccc(-c2ccccc2-c2noc(=O)[nH]2)nc1` [Example 23, 3-{2-{5-{[4-butyl-2-cyclopropyl-1-(5-ethoxypyrimidin-2-yl)-6-oxo-1,6-dihydropyrimidin-5-yl]methyl}pyridin-2-yl}phenyl}-1,2,4-oxadiazol-5(4H)-one] was tested. Which “elimination amount of urinary total protein per 18 hours” value [1] did it give?
A: remarkably inhibited increase of the elimination amount of urinary total protein, and their activity was more potent than that of telmisartan

Q: What about the plasma triglyceride concentration [1] of the same compound?
A: remarkably lowered the plasma triglyceride concentration

Q: What about the “plasma total cholesterol concentration” value [1] of the same compound?
A: remarkably lowered the plasma total cholesterol concentration, and such activity was more potent than that of telmisartan

Q: What about the “renal protecting activity (diabetic nephropathy)” value [1] of the same compound?
A: potent renal protecting activity

Q: What about the “blood pressure lowering activity (change in systolic blood pressure from pre-administration)” value [2] of the same compound?
A: potent blood pressure lowering activity dose-dependently that was equivalent or more to telmisartan

Q: And the inhibition at 0.1 µM [3]?
A: 75.2%
